A short description of this series: recombinant barcode read abundance after kanamycin selection (control-corrected) (log10(CPM+1)); higher = more efficient recombination; sequences stand for … in AGTGCAGAGAAAATCGGCCAGTTTTCTCTGCCTGCAGTCCGCATGCCGT…AGATTTATGCAGCGGACTGCCTTTCTCCCAAAGTGATAAACCGGACAGTATCATGGACCGGTTTTCCCGGTAATCCGTATTTGCAAGGTTGGTTTCACT; site = the 11-nt target. The method in brief:
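Targets were screened in pooled form in E. coli against IS621 bridge RNA target-binding loops. Recombination efficiency is based on barcode counts at recombinant junctions in counts per million, averaged and corrected for the control. Numbers are shown as log10(CPM+1), with duplicate plates on chloramphenicol/ampicillin LB agar (control) or chloramphenicol/ampicillin/kanamycin with 0.1 mM IPTG.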
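Note: IS621 recombinase and bridge RNA in Escherichia coli cells.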

As for “GACAAACCTTGGGTTCTAACCTGTTGCCT (site GACAAACCTAG)”, the “recombinant barcode read abundance (log10)” value came to 0.433. Then “GACAAACCTTGGGTTCTAACCTGTTGCCT (site GTCAAACCTAA)”, with 0.00743.

Turning to “GACACAGCTTGGGTTCTAACCTGTTGCCT (site GAAACAGCTAG)”, the “recombinant barcode read abundance (log10)” value is 0.145. In the case of “GACACAGCTTGGGTTCTAACCTGTTGCCT (site GACACAGCTAG)”, the “recombinant barcode read abundance (log10)” value amounted to 1.26.

Consider “GACACAGCTTGGGTTCTAACCTGTTGCCT (site GAGACAGCTAG)”, for which the “recombinant barcode read abundance (log10)” value came to 0.118. Take “GACACAGCTTGGGTTCTAACCTGTTGCCT (site GATACAGCTAG)”: the “recombinant barcode read abundance (log10)” value was determined as 0.372. Regarding “GACACTTCTTGGGTTCTAACCTGTTGCCT (site GACACTTCTAG)”, the “recombinant barcode read abundance (log10)” value was found to be 0.133. Turning to “GACACTTCTTGGGTTCTAACCTGTTGCCT (site GTCAATTCTAG)”, the “recombinant barcode read abundance (log10)” value was 0.0949.

As to “GACATATCTTGGGTTCTAACCTGTTGCTG (site GACATATCTCA)”, the “recombinant barcode read abundance (log10)” value was found to be 0.403. As for “GACATATCTTGGGTTCTAACCTGTTGCTG (site GACATATCTTG)”, the “recombinant barcode read abundance (log10)” value is 0.165. Then “GACCAGCCTTGGGTTCTAACCTGTTGCCT (site GACCAGCCTAA)”, with 0.277; and “GACCAGCCTTGGGTTCTAACCTGTTGCCT (site GACCAGCCTAC)”, with 0.0691; and “GACCAGCCTTGGGTTCTAACCTGTTGCCT (site GACCAGCCTAG)”, with 0.98. Take “GACCAGCCTTGGGTTCTAACCTGTTGCCT (site GACCAGCCTAT)”: the “recombinant barcode read abundance (log10)” value worked out at 0.359.

Regarding “GACCAGTCTTGGGTTCTAACCTGTTGCGG (site GACCAGTCTCC)”, the “recombinant barcode read abundance (log10)” value worked out at 1.97. Consider “GACCAGTCTTGGGTTCTAACCTGTTGCGG (site GTCCAGGCTCC)”, for which the “recombinant barcode read abundance (log10)” value turned out to be 0.128. “GACCGCTCTTGGGTTCTAACCTGTTGCTA (site GACCGCTCTTA)”: the “recombinant barcode read abundance (log10)” value came out at 1.2.

For “GACCGCTCTTGGGTTCTAACCTGTTGCTA (site GTCAGCTCTTA)”, the “recombinant barcode read abundance (log10)” value is 0.37. To “GACCGTCCTTGGGTTCTAACCTGTTGCCA (site GACCGTCCTTG)” belongs 0.761; to “GACCGTCCTTGGGTTCTAACCTGTTGCCA (site GACTGTCCTTC)”, 0.472. To “GACCGTCCTTGGGTTCTAACCTGTTGCTT (site GACCGTCCTAA)” belongs 1.1; to “GACCGTCCTTGGGTTCTAACCTGTTGCTT (site GACCGTCCTAC)”, 0.447; to “GACCGTCCTTGGGTTCTAACCTGTTGCTT (site GACCGTCCTAG)”, 0.252. On to “GACCGTCCTTGGGTTCTAACCTGTTGCTT (site GACCGTCCTAT)”, for which the “recombinant barcode read abundance (log10)” value was 1.19. Regarding “GACCGTGCTTGGGTTCTAACCTGTTGCCT (site GACCGAGCTAG)”, the “recombinant barcode read abundance (log10)” value stood at 0.0758. In the case of “GACCGTGCTTGGGTTCTAACCTGTTGCCT (site GACCGCGCTAG)”, the “recombinant barcode read abundance (log10)” value was found to be 0.103.

In the case of “GACCGTGCTTGGGTTCTAACCTGTTGCCT (site GACCGGGCTAG)”, the “recombinant barcode read abundance (log10)” value was found to be 0.268. “GACCGTGCTTGGGTTCTAACCTGTTGCCT (site GACCGTGCTAG)”: the “recombinant barcode read abundance (log10)” value turned out to be 1.38. Consider “GACCTACCTTGGGTTCTAACCTGTTGCAG (site GACCTACCTCT)”, for which the “recombinant barcode read abundance (log10)” value turned out to be 2.18. Then “GACCTACCTTGGGTTCTAACCTGTTGCAG (site GACCTCCCTCA)”, with 0.136.

For “GACCTATCTTGGGTTCTAACCTGTTGCCT (site GACCTATCTAG)”, the “recombinant barcode read abundance (log10)” value was found to be 1.39. “GACCTATCTTGGGTTCTAACCTGTTGCCT (site TGTGCTACTGT)”: the “recombinant barcode read abundance (log10)” value stood at 0.213.

As to “GACCTCCCTTGGGTTCTAACCTGTTGCTG (site GACCTACCTCT)”, the “recombinant barcode read abundance (log10)” value is 0.219.

As to “GACCTCCCTTGGGTTCTAACCTGTTGCTG (site GACCTCCCTCA)”, the “recombinant barcode read abundance (log10)” value was 2.16. Regarding “GACGCTTCTTGGGTTCTAACCTGTTGCAT (site GACGCAACTAT)”, the “recombinant barcode read abundance (log10)” value was determined as 1. Regarding “GACGCTTCTTGGGTTCTAACCTGTTGCAT (site GACGCTTCTAT)”, the “recombinant barcode read abundance (log10)” value was 0.254. Regarding “GACGTAACTTGGGTTCTAACCTGTTGCAG (site AGGAAGGCTTG)”, the “recombinant barcode read abundance (log10)” value came out at 0.459. To “GACGTAACTTGGGTTCTAACCTGTTGCAG (site GACGTAACTCT)” belongs 1.15; to “GACGTAACTTGGGTTCTAACCTGTTGCCT (site GAAGTAACTAG)”, 0.0422.

In the case of “GACGTAACTTGGGTTCTAACCTGTTGCCT (site GACGTAACTAG)”, the “recombinant barcode read abundance (log10)” value came to 0.508. Then “GACGTAACTTGGGTTCTAACCTGTTGCCT (site GAGGTAACTAG)”, with 0.0292. On to “GACGTAACTTGGGTTCTAACCTGTTGCCT (site GATGTAACTAG)”, for which the “recombinant barcode read abundance (log10)” value was found to be 0.163. To “GACTAGTCTTGGGTTCTAACCTGTTGCAG (site CGGGGCCCTAA)” belongs 0.156; to “GACTAGTCTTGGGTTCTAACCTGTTGCAG (site GACTAGTCTCT)”, 2.22; to “GACTATCCTTGGGTTCTAACCTGTTGCCG (site ACTATGACTAA)”, 0.0127.

As for “GACTATCCTTGGGTTCTAACCTGTTGCCG (site GACTATCCTCG)”, the “recombinant barcode read abundance (log10)” value was 0.739. Then “GACTATGCTTGGGTTCTAACCTGTTGCCT (site GACTATGCTAG)”, with 0.461; and “GACTATGCTTGGGTTCTAACCTGTTGCCT (site GCCTATGCTAG)”, with 0.291. For the sequence “GACTATGCTTGGGTTCTAACCTGTTGCCT (site GGCTATGCTAG)”, the “recombinant barcode read abundance (log10)” value stood at 0.0633. “GACTATGCTTGGGTTCTAACCTGTTGCCT (site GTCTATGCTAG)”: the “recombinant barcode read abundance (log10)” value was determined as 0.00989. As for “GACTATTCTTGGGTTCTAACCTGTTGCCT (site GAATATTCTAG)”, the “recombinant barcode read abundance (log10)” value is 0.0378. As to “GACTATTCTTGGGTTCTAACCTGTTGCCT (site GACTATTCTAG)”, the “recombinant barcode read abundance (log10)” value came to 0.212. On to “GACTATTCTTGGGTTCTAACCTGTTGCCT (site GAGTATTCTAG)”, for which the “recombinant barcode read abundance (log10)” value worked out at 0.106. “GACTATTCTTGGGTTCTAACCTGTTGCCT (site GATTATTCTAG)”: the “recombinant barcode read abundance (log10)” value is 0.178. “GACTCTACTTGGGTTCTAACCTGTTGCTT (site GAATCTACTAA)”: the “recombinant barcode read abundance (log10)” value turned out to be 0.0131. Then “GACTCTACTTGGGTTCTAACCTGTTGCTT (site GACTCTACTAA)”, with 0.65; and “GACTCTACTTGGGTTCTAACCTGTTGCTT (site GAGTCTACTAA)”, with 0.068.

For the sequence “GACTCTACTTGGGTTCTAACCTGTTGCTT (site GATTCTACTAA)”, the “recombinant barcode read abundance (log10)” value is 0.0521. To “GACTCTCCTTGGGTTCTAACCTGTTGCAT (site GACTCTCCTAA)” belongs 0.00987.
